Test results from ChEMBL document CHEMBL1201862, “PubChem BioAssay data set” (2004).
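Compound exposure: 48 hours, 5 concentrations, 96-well plates. GI50 marks 50% less growth.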 Calls of active or inactive are those of the source. No stated cut-off is given here; in the data, active = GI50 up to about 1.1 µM and inactive = higher.

Experiments:
Experiment in all cases: NCI-60 cell line screen, 48 h
[1] = test system: UACC-62
[2] = test system: MDA-MB-435
[3] = test system: U-251
[4] = test system: HOP-92
[5] = test system: SN12C
[6] = test system: SW-620
[7] = test system: BT-549
[8] = test system: NCI-H522
[9] = test system: EKVX
[10] = test system: T47D
[11] = test system: TK-10
[12] = test system: OVCAR-4
[13] = test system: SR
[14] = test system: ACHN
[15] = test system: A549
[16] = test system: HCC 2998
[17] = test system: SF-295
[18] = test system: MCF7
[19] = test system: NCI/ADR-RES
[20] = test system: KM12

Measured: GI50

O=c1c2cccnc2[s+]([O-])n1Cc1ccccc1 (stereo not given)
inactive: [1] > 100 µM | [2] > 100 µM | [3] > 100 µM | [4] > 100 µM | [5] > 100 µM | [6] > 100 µM | [7] > 100 µM | [8] > 100 µM | [9] > 100 µM | [10] > 100 µM | [11] > 100 µM | [12] > 100 µM | [13] > 100 µM | [14] > 100 µM | [15] > 100 µM | [16] > 100 µM | [17] > 100 µM | [18] > 100 µM | [19] > 100 µM | [20] > 100 µM

O=C(O)CNC(=O)C1NC(C(F)(F)F)(C(F)(F)F)OC1(C(F)(F)F)C(F)(F)F (stereo not given)
inactive: [1] > 100 µM | [2] > 100 µM | [3] > 100 µM | [4] > 100 µM | [5] > 100 µM | [6] > 100 µM | [7] > 100 µM | [8] > 100 µM | [9] > 100 µM | [10] > 100 µM | [11] > 100 µM | [12] > 100 µM | [13] > 100 µM | [14] > 100 µM | [15] > 100 µM | [17] 92.3 µM | [18] > 100 µM | [19] > 100 µM | [20] > 100 µM

O=C(O)CN1CCN2CCOCCN(CC1)CCN(CC(=O)O)CC2
inactive: [1] > 100 µM | [2] > 100 µM | [3] > 100 µM | [4] > 100 µM | [5] > 100 µM | [6] > 100 µM | [7] > 100 µM | [8] > 100 µM | [9] > 100 µM | [10] > 100 µM | [11] > 100 µM | [12] > 100 µM | [13] > 100 µM | [14] > 100 µM | [15] > 100 µM | [16] > 100 µM | [17] > 100 µM | [18] > 100 µM | [19] > 100 µM | [20] > 100 µM

CCOC(=O)C1=C(C)OC2(O)C=CC(O)=C3C(=O)N(c4ccccc4)C(=O)C312 (stereo not given)
inactive: [1] 29.9 µM | [2] 37.8 µM | [3] 35.7 µM | [4] 21 µM | [5] 40.7 µM | [7] 31.6 µM | [8] 18.5 µM | [9] 54 µM | [10] 45.1 µM | [11] 37.4 µM | [12] 31.5 µM | [13] 18.9 µM | [14] 31.8 µM | [15] > 100 µM | [16] 37.3 µM | [17] > 100 µM | [18] 29.6 µM | [19] 42.2 µM | [20] 38.6 µM

S=C(NN=C1NCCCN1)Nc1ccccc1
inactive: [1] > 100 µM | [2] > 100 µM | [3] > 100 µM | [4] > 100 µM | [6] > 100 µM | [7] > 100 µM | [8] 60.4 µM | [9] > 100 µM | [10] > 100 µM | [11] > 100 µM | [12] > 100 µM | [13] 63.1 µM | [14] > 100 µM | [15] > 100 µM | [16] > 100 µM | [17] > 100 µM | [18] > 100 µM | [19] > 100 µM | [20] > 100 µM

N=C(N)NC(=N)Nc1c(F)c(F)c(F)c(F)c1F
inactive: [1] > 100 µM | [2] > 100 µM | [3] > 100 µM | [4] 36.7 µM | [5] > 100 µM | [6] > 100 µM | [7] 92.3 µM | [8] 93.8 µM | [9] 44.1 µM | [10] 61.8 µM | [11] 95.9 µM | [12] > 100 µM | [13] 17.3 µM | [14] > 100 µM | [15] > 100 µM | [17] > 100 µM | [18] 49.4 µM | [19] > 100 µM | [20] > 100 µM

CC1(C)CC[C@]2(C(=O)O)CC[C@]3(C)C(=CC[C@@H]4[C@@]5(C)CC[C@H](OC6OC(C(=O)O)C(O)C(O)C6O)C(C)(C)[C@@H]5CC[C@]43C)[C@@H]2C1 (stereo not given in full)
inactive: [1] 18.4 µM | [2] 19.2 µM | [3] 14.9 µM | [4] 13.1 µM | [5] 16.8 µM | [6] 17.4 µM | [7] 20.9 µM | [8] 19.4 µM | [9] 24.5 µM | [10] 18.4 µM | [12] 16.8 µM | [13] 15 µM | [14] 16.1 µM | [15] 18.8 µM | [16] 18.8 µM | [17] 15.2 µM | [18] 24.9 µM | [19] 17.7 µM | [20] 16.5 µM
